{"source": "patent US4117139A", "about": "“Medicated compound for treating allergic diseases” (priority 1973, dated 1978)", "key": {"[1]": {"tested_on": "ophthalmic response (hyperemia and chemosis) caused by histamine", "test": "Ophthalmic response to histamine instilled into conjunctival sac of guinea pigs", "assay_type": "in vivo"}, "[2]": {"test": "Embryotoxicity / teratogenicity in pregnant rats", "assay_type": "in vivo", "details": "per os, single doses 3/4 of LD50, various periods of pregnancy"}, "[3]": {"tested_on": "foot edema caused by dextrane", "test": "Rat foot edema caused by subplantar dextrane", "assay_type": "in vivo, rats", "details": "25 mg/kg intraperitoneally and 50 mg/kg in the stomach; dextrane 0.1 ml of 6% solution; P over 0.05", "source_text": "(§1) The medicated compound of the present invention irrespectively of the medication mode exerts anti-edemic antianaphylactic action."}, "[4]": {"tested_on": "bronchial asthma", "test": "Clinical test: bronchial asthma", "assay_type": "in vivo", "details": "patients", "source_text": "(§2) The medicated compound of the present invention was clinically tested on 250 patients aging from 18 to 70 years suffering from allergic diseases for a period of from 3 months to 10 years, and treated with various anti-histamine medicines.\n(§3) The medicated compound of the present invention was used for the treatment of acute and chronic urticaria, hay fever, Quincke's oedema, dermal itch, chronic eczema, polysyndromic phenomena of intolerance (arthropathy, eosinophilia, temperature increase), dermatoblepharoconjunctivitis, and bronchial-asthma."}, "[5]": {"tested_on": "central nervous system", "test": "Depressive effect on the central nervous system", "details": "in vivo", "source_text": "The majority of modern anti-histamine medicines reveal a strong sedative effect, whereby their administration is substantially limited in the ambulatory treatment, especially in the case of persons engaged in intellectual pursuits, or persons whose occupation requires quick physical and psychic responses, e.g. drivers of transport vehicles."}, "[6]": {"tested_on": "bronchospasm caused by acetylcholine", "test": "Bronchospasm caused by acetylcholine", "details": "in vivo"}, "[7]": {"tested_on": "intoxication caused by histamine aerosol", "test": "Histamine aerosol intoxication in guinea pigs", "assay_type": "in vivo", "details": "in the stomach, 30 to 50 mg/kg, spraying 300 seconds"}, "[8]": {"test": "Acute toxicity in mice", "details": "mouse, in vivo"}, "[9]": {"test": "Repeated administration to rats", "assay_type": "in vivo"}, "[10]": {"tested_on": "bronchoconstricting action of histamine", "test": "Histamine bronchoconstriction in narcotized guinea pigs (Concette-Rossler method)", "assay_type": "in vivo", "details": "intravenous, 0.1 to 0.2 mg/kg", "source_text": "As to the mechanism of its action, the medicated compound of the present invention represents an antagonist to histamine liberated in antigen-antibody reactions."}, "[11]": {"test": "Clinical tolerability", "assay_type": "in vivo, patients", "source_text": "as §2\nHowever, with the patients over 60 years of age, or those weakened by accompanying serious diseases, some cases of a \"seductive\" effect of the medicated compound of the present invention were noticed."}, "[12]": {"test": "Acute toxicity in guinea pigs", "assay_type": "in vivo"}, "[13]": {"tested_on": "dermatoblepharonconjunctivitis and some other allergic ophthalmic diseases", "test": "Clinical test: dermatoblepharoconjunctivitis and other allergic ophthalmic diseases", "assay_type": "in vivo, patients", "experimental": "as §2\n(§4) In the case of dermatoblepharonconjunctivitis and some other allergic ophthalmic diseases, the medicated compound of the present invention was administered per os (one tablet of 0.025 g 3 to 4 times per day)."}, "[14]": {"tested_on": "heart-vascular system, digestive tract, and excretory organs", "test": "Pharmacological and toxicological studies: heart-vascular system, digestive tract, excretory organs", "details": "in vivo"}, "[15]": {"tested_on": "foot edema caused by formalin", "test": "Rat foot edema caused by subplantar formalin", "assay_type": "in vivo, rats", "details": "25 mg/kg intraperitoneally and 50 mg/kg in the stomach; formalin 0.2 ml of 2% solution; P over 0.05", "source_text": "as §1"}, "[16]": {"tested_on": "central nervous system", "test": "Central nervous system effects in test animals", "assay_type": "in vivo", "details": "mice, rats, rabbits, cats; different modes of administration"}, "[17]": {"tested_on": "allergic diseases", "test": "Clinical test on patients suffering from allergic diseases", "assay_type": "in vivo", "source_text": "as §2\nThe treatment with the medicated compound of the present invention was effected in allergological surgeries under ambulatory and stationary conditions.\nThe majority of the stationary patients were hospitalized with serious, or lasting allergic responses and frequently with accompanying diseases of the heart-vascular system, and digestive tract.\nas §3, §4\nThe medicated compound of the present invention was used individually (without an additional desensibilizing therapy) per os in a dose of from 3 to 6 tablets (0.025 g each) per day, usually directed after eating."}, "[18]": {"test": "Acute toxicity in rats", "details": "rat, in vivo, po, in the stomach"}, "[19]": {"tested_on": "general state and behaviour of animals", "test": "General state and behaviour after single medication", "assay_type": "in vivo, mice, rats, guinea pigs, cats and dogs", "details": "different modes, versus dimedrol and diprasine"}, "[20]": {"tested_on": "foot edema caused by serotonin", "test": "Rat foot edema caused by subplantar serotonin", "assay_type": "in vivo, rats", "source_text": "as §1"}, "[21]": {"tested_on": "hypotensive activity of intravenously injected histamine", "test": "Hypotensive activity of intravenous histamine in narcotized cats", "assay_type": "in vivo", "details": "0.2 to 0.5 mg/kg, histamine 1 mcg/kg i.v."}, "[22]": {"tested_on": "anaphylactic response caused by ovalbumin", "test": "Anaphylactic response to ovalbumin aerosol in actively sensibilized guinea pigs", "details": "25 mg/kg intraperitoneally and 50 mg/kg in stomach; 25% ovalbumin aerosol, 10 minutes"}, "[23]": {"tested_on": "chronic aseptic inflammation", "test": "Chronic aseptic inflammation by hypodermical implantation of wool balls to rats", "assay_type": "in vivo", "details": "hypodermically, 25 mg/kg"}, "[24]": {"tested_on": "bronchospasm caused by serotonine (5-hydroxytriptamine)", "test": "Bronchospasm caused by serotonine", "details": "in vivo"}, "[25]": {"test": "Acute toxicity, diprasine, intravenous", "details": "intravenously"}, "[26]": {"details": "rats, in the stomach, 22 times, 1/4 of LD50"}}, "note": "Structures can show the parent of a compound that is named as a salt."}
{"smiles": "CN(C)CCOC(c1ccccc1)c1ccccc1", "note": "[dimedrol, diphenhydramine hydrochloride, reference compound]", "values": [{"measurement": "effect on ophthalmic response", "setting": "[1]; similar experiments, compared with the medicated compound", "value": "much less pronounced"}]}
{"smiles": "OC(c1ccccc1)(c1ccccc1)C1CN2CCC1CC2", "note": "(centres unmarked) [(quinuclidyl-3)-diphenylcarbinol hydrochloride]", "values": [{"measurement": "embriotoxic or teratogenic effects", "setting": "[2]", "value": "does not exert any embriotoxic or teratogenic effects"}, {"measurement": "reduction of foot edema of hind limb, dextrane", "setting": "[3]", "value": "more than 2 times"}, {"measurement": "efficacy in bronchial asthma", "setting": "[4]", "value": "inefficient"}, {"measurement": "depressive effect on the central nervous system", "setting": "[5]", "value": "does not exert a depressive effect on the central nervous system"}, {"measurement": "influence on bronchospasm caused by acetylcholine", "setting": "[6]", "value": "only a slight influence"}, {"measurement": "protection from intoxication (dispnea, apnoea, clono-tonic spasm)", "setting": "[7]", "value": "completely protects the animals"}, {"measurement": "LD50", "setting": "[8]; iv", "value": 62, "unit": "mg/kg"}, {"measurement": "LD50", "setting": "[8]; po", "value": 370, "unit": "mg/kg"}, {"measurement": "influence on general state and behaviour, peripheral blood, biochemical characteristics of blood and urina", "setting": "[9]; [26]", "value": "no essential influence"}, {"measurement": "pathomorphological changes in internal organs", "setting": "[9]; [26]", "value": "no pathomorphological changes in internal organs"}, {"measurement": "tolerance of repeated administration", "setting": "[9]; relatively high doses", "value": "well tolerated by the test animals"}, {"measurement": "bronchoconstricting action of histamine", "setting": "[10]", "value": "weakens, or inhibits the bronchoconstricting action of histamine"}, {"measurement": "ophthalmic response (hyperemia and chemosis)", "setting": "[1]; into the stomach, 50 mg/kg, 2% solution of histamine", "value": "prevents or substantially reduces ophthalmic response"}, {"measurement": "tolerability", "setting": "[11]; human, in vivo", "value": "well tolerated"}, {"measurement": "\"seductive\" effect", "setting": "[11]; patients over 60 years of age or weakened by accompanying serious diseases", "value": "some cases"}, {"measurement": "discomfort", "setting": "[11]; patients with accompanying serious diseases of the digestive tract", "value": "short-time phenomena of discomfort are possible"}, {"measurement": "time to disappearance of discomfort", "setting": "[11]; patients with accompanying serious diseases of the digestive tract, without cancelling or reducing dosage", "value": "1 to 2", "unit": "days"}, {"measurement": "absolute lethal dose", "setting": "[12]", "value": 500, "unit": "mg/kg"}, {"measurement": "curing action in allergic ophthalmic diseases", "setting": "[13]; per os, one tablet of 0.025 g 3 to 4 times per day", "value": "satisfactory curing action"}, {"measurement": "therapeutic effect with corticosteroids", "setting": "[13]; simultaneous administration of corticosteroids (dexamethazone)", "value": "therapeutic effect was enhanced"}, {"measurement": "influence on heart-vascular system, digestive tract, and excretory organs", "setting": "[14]", "value": "only a relatively slight influence"}, {"measurement": "reduction of foot edema of hind limb, formalin", "setting": "[15]", "value": "more than 2 times"}, {"measurement": "action of various hypnotics", "setting": "[16]", "value": "does not extend the action of various hypnotics"}, {"measurement": "influence on latent period of conditioned reflexes", "setting": "[16]", "value": "nor has it any influence"}, {"measurement": "influence on spontaneous motor activity", "setting": "[16]", "value": "no influence"}, {"measurement": "influence on summation ability of the central nervous system", "setting": "[16]", "value": "no influence"}, {"measurement": "efficacy in allergic diseases", "setting": "[17]; acute and chronic urticaria, hay fever, vasomotor rhinitis, Quincke's oedema, itching dermatosis, chronic eczema, polysyndromic phenomena of intolerance", "value": "highly efficient"}, {"measurement": "efficacy in patients with developed adaptation to other anti-histamine medicines", "setting": "[17]; human, in vivo", "value": "efficient"}, {"measurement": "time to better condition of patients (dermal eruptions and itching reduced)", "setting": "[17]; per os, 3 to 6 tablets (0.025 g each) per day", "value": 3, "unit": "days"}, {"measurement": "LD50", "setting": "[18]", "value": 440, "unit": "mg/kg"}, {"measurement": "influence on general state and behaviour of animals", "setting": "[19]", "value": "to a considerably lesser extent than dimedrol (diphenhydramine) and especially diprasine (promethasine)"}, {"measurement": "reduction of foot edema of hind limb, serotonin", "setting": "[20]; 25 mg/kg intraperitoneally and 50 mg/kg in the stomach, serotonin 5 mcg, P over 0.05", "value": "more than 2 times"}, {"measurement": "anti-edemic efficiency relative to dimedrol and diprasine", "setting": "[20]; rat foot edema (serotonin, formalin, dextrane)", "value": "more efficient than dimedrol, and more active than diprasine (promethasine)"}, {"measurement": "hypotensive activity of histamine", "setting": "[21]", "value": "prevents hypotensive activity"}, {"measurement": "antiallergic effect", "setting": "[22]", "value": "clearly pronounced antiallergic effect"}, {"measurement": "signs of anaphylactic response / latent period", "setting": "[22]", "value": "increasing the latent period, or completely inhibiting signs of anaphylactic response"}, {"measurement": "anti-inflammation effect", "setting": "[23]", "value": "pronounced anti-inflammationeffect"}, {"measurement": "anti-inflammation effect relative to dimedrol", "setting": "[23]", "value": "superior over dimedrol"}, {"measurement": "influence on bronchospasm caused by serotonine", "setting": "[24]", "value": "only a slight influence"}]}
{"smiles": "CC(CN1c2ccccc2Sc2ccccc21)N(C)C", "note": "(centres unmarked) [diprasine (promethasine), promethasine]", "values": [{"measurement": "dose resulting in the death of half of the animals", "setting": "[25]", "value": 25, "unit": "mg/kg"}]}
